# According to PubChem BioAssay (NCI):
#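 The compound was tested at five concentrations on cells cultured in 96-well plates, with a 48-hour exposure period. TGI: total growth inhibition.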
# Legend:
# Assay in all cases: NCI-60 cell line screen, 48 h
# [1] = tested on: HOP-62 NSCLC
# [2] = tested on: HT29 colon
# [3] = tested on: K-562 leukemia
# [4] = tested on: LOX IMVI melanoma
# [5] = tested on: OVCAR-3 ovarian
# [6] = tested on: SK-MEL-2 melanoma
# [7] = tested on: SK-OV-3 ovarian
# [8] = tested on: SNB-75 CNS
# [9] = tested on: HCT-15 colon
# [10] = tested on: NCI-H23 lung
SMILES,TGI [1],TGI [2],TGI [3],TGI [4],TGI [5],TGI [6],TGI [7],TGI [8],TGI [9],TGI [10]
CN(NC(=O)/C(=C/c1ccc(O)cc1)NC(=O)c1ccccc1)c1ccnc2cc(Cl)ccc12,30.1 µM,23 µM,30.5 µM,37.2 µM,31.2 µM,44.4 µM,36.6 µM,22.8 µM,–,–
COC(c1ccsc1)C(C#N)(C#N)N=Cc1ccsc1 (configuration not stated),34.8 µM,25.1 µM,49.3 µM,22 µM,42.2 µM,35.6 µM,59.1 µM,29.9 µM,25.9 µM,26.2 µM
COc1cc(/C=C2\C[C@H]3[C@@H]4CC=C5C[C@@H](N6CCCC6)CC[C@]5(C)[C@H]4CC[C@]3(C)[C@H]2O)cc(OC)c1OC,30.6 µM,14.5 µM,> 100 µM,20.8 µM,31.2 µM,35.9 µM,35.9 µM,25.8 µM,26.5 µM,29.9 µM
Oc1ccc2c(c1)-c1c(c3cc(O)ccc3n1CCN1CCOCC1)CC2,72.7 µM,59.8 µM,41 µM,35.7 µM,61.8 µM,37.7 µM,81.2 µM,58.5 µM,45.4 µM,73.5 µM
O=S(=O)(c1cc(Cl)ccc1Cl)N1CCN(S(=O)(=O)c2cc(Cl)ccc2Cl)CC1,> 100 µM,> 100 µM,> 100 µM,–,> 100 µM,> 100 µM,–,> 100 µM,> 100 µM,18.7 µM
C/C(O)=C/c1nc2ccccc2nc1/C=C(/C)O,67.1 µM,43.3 µM,81 µM,56.4 µM,40.7 µM,40.1 µM,> 100 µM,63.3 µM,> 100 µM,> 100 µM
CCCCC1(N=[N+]=[N-])C(=O)c2cccc3c2N(CCC3)C1=O (configuration not stated),> 100 µM,> 100 µM,> 100 µM,> 100 µM,> 100 µM,> 100 µM,> 100 µM,> 100 µM,> 100 µM,> 100 µM
CCCSc1cc(Cl)c(C)cc1S(=O)(=O)n1ccnc1OCCCN(C)C,> 100 µM,> 100 µM,> 100 µM,> 100 µM,> 100 µM,> 100 µM,> 100 µM,–,> 100 µM,> 100 µM
COc1cc(Oc2nc3ccccc3nc2C(=O)O)cc(OC)c1OC,> 100 µM,> 100 µM,> 100 µM,> 100 µM,> 100 µM,> 100 µM,> 100 µM,> 100 µM,> 100 µM,> 100 µM
O=C(CCc1cccc(O)c1)NCCc1cccc(O)c1,> 100 µM,> 100 µM,> 100 µM,> 100 µM,> 100 µM,> 100 µM,> 100 µM,–,> 100 µM,> 100 µM
C=CCNC1=C2C[C@@H](C)C[C@@H](OC)C(OC(=O)CCCN(C)C)[C@H](C)/C=C(\C)[C@@H](OC(N)=O)[C@H](OC)/C=C\C=C(/C)C(=O)NC(=CC1=O)C2=O (some centres not stated),21.5 µM,12.1 µM,> 100 µM,21.7 µM,11.7 µM,25.5 µM,12.6 µM,22.9 µM,19.4 µM,20.8 µM
CC(=O)Nc1ccc(S(=O)(=O)Nc2nnc(S(N)(=O)=O)s2)cc1,–,> 100 µM,–,> 100 µM,–,–,> 100 µM,> 100 µM,> 100 µM,> 100 µM
CCNc1nc(N)c(C(=O)c2ccc(Cl)cc2)s1,> 100 µM,> 100 µM,> 100 µM,> 100 µM,65.4 µM,> 100 µM,> 100 µM,–,> 100 µM,> 100 µM
CC1(C)O[C@H](C(=O)O)[C@@H](C(=O)O)O1,> 100 µM,> 100 µM,> 100 µM,> 100 µM,–,> 100 µM,> 100 µM,> 100 µM,> 100 µM,–
COCn1c(C)c(C)c2c(=O)oc(=O)[nH]c21,> 100 µM,> 100 µM,> 100 µM,> 100 µM,–,> 100 µM,> 100 µM,> 100 µM,> 100 µM,> 100 µM
COc1c2occc2c(OC)c2c(=O)c(S(=O)(=O)NC(=O)Nc3ccc(Cl)cc3)coc12,> 10 µM,> 10 µM,> 10 µM,> 10 µM,> 10 µM,> 10 µM,> 10 µM,–,> 10 µM,> 10 µM
COc1cc2c(cc1OC)C1CN3C(=O)CCC3C(O)C1c1cc(OC)c(OC)cc1-2 (configuration not stated),> 100 µM,> 100 µM,> 100 µM,> 100 µM,–,> 100 µM,> 100 µM,> 100 µM,> 100 µM,> 100 µM
CSC1=Nc2ccccc2-c2nc(-c3ccccc3)cc(-c3ccccc3)c2C1,> 100 µM,> 100 µM,> 100 µM,> 100 µM,–,–,30.6 µM,16.8 µM,> 100 µM,33.5 µM
COC(=O)c1c(OC(C)=O)ccc2c1c1c(OC(C)=O)c3ccccc3c(OC(C)=O)c1n2Cc1cc(OC)cc(OC)c1,> 100 µM,> 100 µM,> 100 µM,–,> 100 µM,12.5 µM,57.8 µM,54.3 µM,> 100 µM,> 100 µM
CO/C(=N\N=C\c1ccc(Cl)cc1)c1ccncc1,> 100 µM,> 100 µM,> 100 µM,–,> 100 µM,> 100 µM,> 100 µM,> 100 µM,> 100 µM,> 100 µM
Cc1oc2nc1C(=O)NCc1nc(cs1)C(=O)N[C@H](C(C)C)c1nc(cs1)C(=O)N[C@H]2C,> 100 µM,> 100 µM,> 100 µM,–,> 100 µM,–,> 100 µM,> 100 µM,> 100 µM,> 100 µM
CC(C)OC(=O)c1ccc(NCC2=CC(=O)C=CC2=O)cc1Cl,> 100 µM,> 62.5 µM,–,35.6 µM,> 45.9 µM,> 100 µM,> 100 µM,> 70.3 µM,18.6 µM,33.1 µM
